In patent US11634425B2, “Pharmaceutical compounds” (priority 2019, dated 2023):
Converted amounts (≈) assume the structure as drawn. Read-outs that look alike come from different tables or passages of the source.

What was measured:
[1] = in vitro; format: in vitro ADME; details: 1 μM compound, 0.5 mg/mL protein; for half-life at 1 μM: microsomes, pH 7.4, read-out: Liver Microsomal Stability t1/2
In short: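 Pooled liver microsomes (0.5 mg/mL protein) in 0.1 M phosphate pH 7.4 with 1 μM compound and 1 mM NADPH at 37° C., sampled at 0–45 min; minus-NADPH control at 45 min. Acetonitrile quench, LC-MS/MS; t1/2 and CLint from ln peak-area ratio vs time slope.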

[2] = in vitro; format: in vitro ADME; details: hepatocytes, 3 μM compound, read-out: Liver Hepatocyte Stability t1/2
Protocol: Compounds were subjected to the following assays to investigate liver microsomal stability and hepatocyte stability.
Hepatocyte Incubation: Experimental Procedure
Cryopreserved pooled hepatocytes were purchased from a reputable commercial supplier and stored in liquid nitrogen prior to use. Williams E media supplemented with 2 mM L-glutamine and 25 mM HEPES and test compound (final substrate concentration 3 μM; final DMSO concentration 0.25%) are pre-incubated at 37° C. prior to the addition of a suspension of cryopreserved hepatocytes (final cell density 0.5×10^6 viable cells/mL in Williams E media supplemented with 2 mM L-glutamine and 25 mM HEPES) to initiate the reaction. The final incubation volume is 500 μL. Two control compounds were included with each species, alongside appropriate vehicle control. The reactions are stopped by transferring 50 μL of incubate to 100 μL acetonitrile containing internal standard at the appropriate time points. Samples were removed at 6 time points (0, 5, 15, 30, 45 and 60 min) over the course of a 60 min experiment. The termination plates are centrifuged at 2500 rpm at 4° C. for 30 min to precipitate the protein. Following protein precipitation, the sample supernatants were combined in cassettes of up to 4 compounds and analysed using generic LC-MS/MS conditions. From a plot of ln peak area ratio (compound peak area/internal standard peak area) against time, the gradient of the line is determined. Subsequently, half-life (t1/2) and intrinsic clearance (CLint) were calculated.

[3] = tested on: RSV A2; experiment: RSV plaque reduction assay; format: cell-based, respiratory syncytial virus (RSV); details: mean of at least two experiments
In short: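 RSV A2 at 100 PFU/well was premixed with eight compound dilutions and added to confluent Hep-G2 monolayers for 2 h at 37 °C. Cells were then kept 2 days under a DMEM/2% FBS/0.8% CMC overlay containing compound. Immunostained plaques were counted relative to virus controls, and EC50 came from 4-parameter fits, averaged over at least two experiments.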

[4] = Thermodynamic solubility; format: physicochemical; details: aqueous buffer, thermodynamic from solid; typically phosphate buffered saline pH 7.4, ambient temperature overnight
Protocol: Test compound (2.5 mg of solid; n=1) was weighed in an amber glass vial and buffer (0.5 mL) was added (typically phosphate buffered saline pH 7.4). The solution was agitated at ambient temperature overnight using a vial roller system. The solution was then filtered (0.45 μm pore size; without pre-saturation). Duplicate aliquots (50 μL) are sampled from the filtrate and diluted with one volume of Milli-Q water and methanol (1:1 v/v) before analysis by HPLC-UV. A standard was prepared in DMSO at 10 mg/mL (n=1) which was then diluted 10-fold in Milli-Q water and methanol (1:1 v/v) to give a 1 mg/mL solution. The concentration of test compound in the filtrate was quantified relative to the concentration standard. Analysis was performed using a gradient HPLC-MS system.

[5] = Cell cytotoxicity (CC50); format: cell-based; details: human; mean of at least two experiments
In short: (§1)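 Values are means of ≥2 independent runs, rounded to whole units, from 4-parameter variable-slope curve fits. Toxicity measured in Hep-G2 cells run alongside RSV plaque-reduction assays.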

[6] = tested on: Hep-G2 cells; experiment: Cell cytotoxicity (CC50); format: cell-based; details: mean of at least two experiments
In short: as §1

[7] = in vivo; format: in vivo, rat (Sprague Dawley); details: male SD rat; for Vd / clearance / Cmax / half-life / AUC(0-t): Sprague Dawley, in vivo; for Cmax / C 8 h: IV 1 mg/kg / PO 10 mg/kg study; for AUC(0-t): read-out: PO AUClast
Protocol: The pharmacokinetics of compounds were studied in vivo in rats at doses of 1 mg/kg (IV) and 10 mg/kg (PO).
Male rats [Sprague Dawley (SD)] surgically prepared with a jugular vein cannula were treated with experimental compounds via intravenous administration (IV; n=3; 1 mg/kg) or oral administration (PO; n=3; 10 mg/kg). Compounds were formulated as a solution in 40:60 dimethylacetamide:saline (IV administration) and a solution of 10% DMSO, 20% cremaphor in water (70%) (PO administration). […] Serial blood samples were collected via the cannula at 0.02, 0.08, 0.25, 0.5, 1, 2, 4, 6, 8 and 24 h post IV dosing of compound, and at 0.08, 0.25, 0.5, 1, 2, 4, 6, 8 and 24 h post oral dosing of compound, and plasma was prepared by centrifugation and stored immediately at −80° C. Samples were subsequently thawed, prepared for analysis by protein precipitation with acetonitrile, and analysed by tandem LCMS using electrospray ionisation using a matrix-matched calibration curve. PK parameters were calculated from the resulting data.

[8] = human respiratory syncytial virus, HepG2, Hep-G2 cells
[9] = IV 1 mg/kg, read-out: IV t1/2 (converted)
[10] = PO 10 mg/kg, read-out: PO t1/2 (converted)

Q: Which half-life at 1 μM ([1]; dog) does the source give for `Cc1nc2ccc(Cl)nn2c1C(=O)N[C@H]1N=C(c2ccccc2)c2ccccc2NC1=O` [Example 21, 6-Chloro-2-methyl-N-[(3S)-2-oxo-5-phenyl-1,3-dihydro-1,4-benzodiazepin-3-yl]imidazo[1,2-b]pyridazine-3-carboxamide] here?
A: 177 min

Q: And the half-life at 1 μM ([1]; human)?
A: 129 min

Q: And the half-life at 1 μM ([1]; rat)?
A: 62.2 min

Q: What about the half-life at 3 μM ([2]; dog) of the same compound?
A: 153 min

Q: And the half-life at 3 μM ([2]; human)?
A: 151 min

Q: What about the half-life at 3 μM ([2]; rat) of the same compound?
A: 89.8 min

Q: What about the EC50 [3, 8] of the same compound?
A: 147 nM

Q: And the solubility thermodynamic [4]?
A: 4.64 µM (≈ 2.06 µg/mL)

Q: And the CC50 [5]?
A: > 25 µM

Q: What does the source list for `O=C(N[C@H]1N=C(c2ccccc2)c2cccc(F)c2NC1=O)c1c(-c2ccc3[nH]ncc3c2)nc2cccnn12` [Example 126, N-[(3S)-9-fluoro-2-oxo-5-phenyl-1,3-dihydro-1,4-benzodiazepin-3-yl]-2-(1H-indazol-5-yl)imidazo[1,2-b]pyridazine-3-carboxamide]?
A: Liver Microsomal Stability t1/2 ([1]; dog): 33.8 min; Liver Microsomal Stability t1/2 ([1]; human): 312 min; Liver Microsomal Stability t1/2 ([1]; rat): 413 min; EC50 ([3]; Hep-G2 cells): 56 nM; CC50 [6]: > 25 µM

Q: For “2-[2-Methyl-6-(propan-2-ylamino)pyridin-3-yl]-N-[(3S)-2-oxo-5-phenyl-1,3-dihydro-1,4-benzodiazepin-3-yl]pyrazolo[1,5-a]pyrimidine-3-carboxamide [Example 60]”, which EC50 ([3]; Hep-G2 cells) is on record?
A: 41 nM

Q: And the CC50 [6]?
A: > 25 µM

Q: For `CN1CCc2ccc(-c3nn4cccnc4c3C(=O)N[C@H]3N=C(c4ccccc4)c4ccccc4NC3=O)cc21` [Example 11, 2-(1-Methyl-2,3-dihydroindol-6-yl)-N-[(3S)-2-oxo-5-phenyl-1,3-dihydro-1,4-benzodiazepin-3-yl]pyrazolo[1,5-a]pyrimidine-3-carboxamide], which EC50 ([3]; Hep-G2 cells) is on record?
A: 89 nM

Q: And the CC50 [6]?
A: > 25 µM

Q: What does the source list for “N-[(3S)-9-Fluoro-2-oxo-5-phenyl-1,3-dihydro-1,4-benzodiazepin-3-yl]-2-(2-fluorophenyl)-7-methylpyrazolo[1,5-a]pyrimidine-3-carboxamide [Example 38]”?
A: Liver Microsomal Stability t1/2 ([1]; dog): 165 min; Liver Microsomal Stability t1/2 ([1]; human): > 140 min; Liver Microsomal Stability t1/2 ([1]; rat): 119 min; EC50 ([3]; Hep-G2 cells): 27 nM; CC50 [6]: > 25 µM

Q: For `O=C(N[C@H]1N=C(c2ccccc2)c2cccc(F)c2NC1=O)c1c(-c2cncc(Cl)c2)nn2cccnc12` [Example 28, 2-(5-Chloropyridin-3-yl)-N-[(3S)-9-fluoro-2-oxo-5-phenyl-1,3-dihydro-1,4-benzodiazepin-3-yl]pyrazolo[1,5-a]pyrimidine-3-carboxamide], which half-life at 1 μM ([1]; dog) is on record?
A: 257 min

Q: What about the half-life at 1 μM ([1]; human) of the same compound?
A: 852 min

Q: What about the half-life at 1 μM ([1]; rat) of the same compound?
A: 2680 min

Q: And the half-life at 3 μM ([2]; dog)?
A: 240 min

Q: And the half-life at 3 μM ([2]; human)?
A: 194 min

Q: What about the half-life at 3 μM ([2]; rat) of the same compound?
A: > 186 min

Q: And the EC50 [3, 8]?
A: 41 nM

Q: What about the Vd ([7]; IV 1 mg/kg) of the same compound?
A: 1.8 L/kg

Q: What about the clearance ([7]; IV 1 mg/kg) of the same compound?
A: 7.8 mL/min/kg

Q: What about the Cmax [7] of the same compound?
A: 785 ng/mL

Q: What about the half-life [7, 9] of the same compound?
A: 186 min

Q: And the AUC(0-t) ([7]; PO 10 mg/kg)?
A: 11100 ng·h/mL

Q: And the half-life [7, 10]?
A: 324 min

Q: What about the “C 8 h” value [7] of the same compound?
A: 629 ng/mL

Q: And the F ([7]; IV 1 mg/kg, PO 10 mg/kg)?
A: 54%

Q: And the CC50 [5]?
A: > 25 µM

Q: For “2-[4-Methyl-6-(propan-2-ylamino)pyridin-3-yl]-N-[(3S)-9-fluoro-2-oxo-5-phenyl-1,3-dihydro-1,4-benzodiazepin-3-yl]pyrazolo[1,5-a]pyrimidine-3-carboxamide [Example 62]”, which “Liver Microsomal Stability t1/2” value ([1]; dog) is on record?
A: 49.7 min

Q: What about the “Liver Microsomal Stability t1/2” value ([1]; human) of the same compound?
A: > 140 min

Q: And the “Liver Microsomal Stability t1/2” value ([1]; rat)?
A: 71.2 min

Q: What about the EC50 ([3]; Hep-G2 cells) of the same compound?
A: 74 nM

Q: What about the CC50 [6] of the same compound?
A: > 25 µM

Q: With `Cc1ccc2nc(-c3ccc(N4CCOCC4)nc3)c(C(=O)N[C@H]3N=C(c4ccccc4)c4cccc(F)c4NC3=O)n2n1` [Example 105, N-[(3S)-9-fluoro-2-oxo-5-phenyl-1,3-dihydro-1,4-benzodiazepin-3-yl]-6-methyl-2-(6-morpholin-4-ylpyridin-3-yl)imidazo[1,2-b]pyridazine-3-carboxamide] as the compound, how does the EC50 ([3]; Hep-G2 cells) read?
A: 38 nM

Q: What about the CC50 [6] of the same compound?
A: > 25 µM

Q: Which EC50 ([3]; Hep-G2 cells) does the source give for “N-[(3S)-9-Fluoro-2-oxo-5-phenyl-l,3-dihydro-1,4-benzodiazepin-3-yl]-2-phenylpyrazolo[1,5-a]pyrimidine-3-carboxamide [Example 17]” here?
A: 90 nM

Q: And the CC50 [6]?
A: > 25 µM

Q: For `CCc1ccc(-c2nn3cccnc3c2C(=O)N[C@H]2N=C(c3ccccc3)c3cccc(F)c3NC2=O)c(C)n1` [Example 57, 2-(6-Ethyl-2-methylpyridin-3-yl)-N-[(3S)-9-fluoro-2-oxo-5-phenyl-2,3-dihydro-1H-1,4-benzodiazepin-3-yl]pyrazolo[1,5-a]pyrimidine-3-carboxamide], which half-life at 1 μM ([1]; dog) is on record?
A: 82.6 min

Q: What about the half-life at 1 μM ([1]; human) of the same compound?
A: 101 min

Q: And the half-life at 1 μM ([1]; rat)?
A: 42.9 min

Q: What about the half-life at 3 μM ([2]; dog) of the same compound?
A: 2600 min

Q: What about the half-life at 3 μM ([2]; human) of the same compound?
A: > 186 min

Q: What about the half-life at 3 μM ([2]; rat) of the same compound?
A: 47.1 min

Q: And the EC50 [3, 8]?
A: 56 nM

Q: What about the Vd ([7]; IV 1 mg/kg) of the same compound?
A: 0.6 L/kg

Q: What about the clearance ([7]; IV 1 mg/kg) of the same compound?
A: 19.2 mL/min/kg

Q: What about the Cmax [7] of the same compound?
A: 912 ng/mL

Q: And the half-life [7, 9]?
A: 84 min

Q: And the AUC(0-t) ([7]; PO 10 mg/kg)?
A: 3660 ng·h/mL

Q: And the half-life [7, 10]?
A: 156 min

Q: And the “C 8 h” value [7]?
A: 142 ng/mL

Q: And the F ([7]; IV 1 mg/kg, PO 10 mg/kg)?
A: 48%

Q: And the CC50 [5]?
A: > 25 µM

Q: Which results are given for “2-[2-Methyl-6-(propan-2-ylamino)pyridin-3-yl]-N-[(3S)-9-fluoro-2-oxo-5-phenyl-1,3-dihydro-1,4-benzodiazepin-3-yl]pyrazolo[1,5-a]pyrimidine-3-carboxamide [Example 61]”?
A: Liver Microsomal Stability t1/2 ([1]; dog): 23.5 min; Liver Microsomal Stability t1/2 ([1]; human): 132 min; Liver Microsomal Stability t1/2 ([1]; rat): 64.2 min; EC50 ([3]; Hep-G2 cells): 25 nM; CC50 [6]: > 25 µM
